# How the values were obtained:
# [1] = SMCSO bioavailability from single dietary supplementation with Beneforte broccoli and stilton soup (plasma and urine over 24 h); format: in vivo, human
# Excerpt: Exposure of prostate tissues to S-methylcysteine sulfoxide may occur either through the systemic circulation in the blood stream, or through urinary reflux. Indeed, urinary reflux into prostatic ducts is common knowledge in the field (Kirby R. S. et al. Intra-prostatic urinary reflux: an aetiological factor in abacterial prostatitis. British Journal of Urology 54, 729-731 (1982)). FIGS. 5 and 6 respectively show the plasma concentration and cumulative excretion of S-methylcysteine sulfoxide in urine following consumption of Beneforté™ broccoli (described, for example, in WO99/052345) and Stilton soup containing 1.2 mmoles of S-methylcysteine sulfoxide.
# The change in plasma concentration of S-methylcysteine sulfoxide was recorded over 24 hours in ten patients.
# Ten patients took part in this study. The total S-methylcysteine sulfoxide excreted represented 23% of that consumed.
# A dietary intervention study was carried out on healthy subjects (n=10) whereby a single event of dietary supplementation was carried out with Beneforte™ broccoli and stilton soup, produced according to the recipe as described in Example 1, providing an effective SMCSO dose of 1.2 mmoles. This was followed by urine and blood collection over 24 h. Plasma and urinary concentrations of SMCSO were measured, see FIGS. 5 (plasma) and 6 (urine). SMCSO concentration in blood plasma increased from a baseline level of 0 μM at the start of the 24 h period to a maximum concentration of 24 μM one hour after consumption of the soup. […] The 24 h cumulative urinary concentration was over 100 μmoles SMCSO.
# [2] = system: Human prostate PNT1A cells; test: Cell assay of SMCSO uptake/accumulation in cells (HPLC of whole cell lysates); format: cell-based; conditions: 300 μM SMCSO
# Description: PNT1A cells were treated with 300μM SMCSO and intracellular levels of SMCSO were quantified following incubation of between 1 h and 72 h. Data shown are means±SD (n=3).
# Human prostate PNT1A cells were incubated with 300 μM SMCSO for up to 72 h in triplicate. Whole cell lysates were collected at regular intervals between 0 and 72 h and levels of SMCSO were quantified by HPLC as above. […] Uptake increases up to approximately 30% following 72 h of exposure to SMCSO.
# [3] = system: human prostatic PNT1A cell line; test: ATP levels in prostate cell assay (fluorimetric kit); format: cell-based; conditions: SMCSO 100 μM or 200 μM, 24 hours exposure, vs control cells
# Description: The concentration of S-methylsulfoxide used in this study (100 μmol to 200 μmop was similar to that found in urine following consumption of 1.0-1.5 mmoles of S-methylcysteine sulfoxide.
# Cells of the human prostatic PNT1A cell line were incubated with SMCSO at 100 μM or 200 μM, these concentrations were chosen as they were consistent with the physiological concentrations of SMCSO measured in the human intervention diet study, for example 2-4 hours after consumption of Beneforté™ broccoli soup the concentration of SMCSO in the urine of study subjects ranged from 42.18 μM to 130.17 μM, see Table 1. ATP levels (nmol/mg protein) in control and SMCSO treated cells were measured fluorimetrically using a commercially available kit (Abcam, ab 8335).
# prostate tissue = test: Short duration (4-6 weeks) diet intervention study: SMCSO and ADP in prostate biopsy tissue; format: in vivo, human; conditions: three 300 g portions per week (6.4 mmoles SMCSO each) for at least 4 weeks, n=9 per arm, p=0.005
# Excerpt: A two arm parallel un-blinded short-term intervention with an enhanced dose of broccoli soups was undertaken. The study recruited men who had been diagnosed or were under investigation for prostate cancer and required a transperineal template biopsy as part of their standard clinical care.
# Patients recruited onto this study were randomly allocated to one of two arms in which they were required to consume three portions of broccoli and stilton soup per week for at least four weeks prior to their biopsy (i) or to follow their normal diet until the operation date (ii). The broccoli and stilton soups contained glucoraphanin-enriched Beneforte® broccoli. The study was not blinded and involved tissue, blood and urine collection on the same day that patients were scheduled for their diagnostic biopsy. Their habitual intake of cruciferous vegetables and dietary supplements was assessed. […]
# SMCSO was measured by following the method described by Bernaert and colleagues (Bernaert, N., et al., Influence of cultivar and harvest time on the amounts of isoalliin and methiin in leek (Allium ampeloprasum var. porrum). J Agric Food Chem, 2012. 60(44): p. 10910-9). […] After centrifugation, the supernatant was diluted with 0.1% formic acid in water, and analysed by LC-MS/MS using an Agilent 6490 mass spectrometer with a photodiode array detector. […]
# [4] = within 24 h, radioactive SMCSO to humans; cited from earlier work
substance,measurement,setting,value
S-methylcysteine sulfoxide [SMCSO],concentration of SMCSO in urine (up to),"[1]; 0-2 h after consumption, 1.2 mmoles SMCSO",up to 164 uM
same,likely concentration of SMCSO within a single urination,"[1]; 0-2 h after consumption, estimate",> 200 µM
same,blood plasma levels at the end of the 24 h period,"[1]; 1.2 mmoles SMCSO, 24 h",remained elevated above baseline
same,"cumulative urinary SMCSO, mean","[1]; 2-4 hours after dietary supplementation, 1.2 mmoles SMCSO",71.5 µmol
same,24 h cumulative urinary SMCSO,"[1]; 24 h, 1.2 mmoles SMCSO",over 100 μmoles
same,"S-methylcysteine sulfoxide excreted in urine (concentration, up to)","[1]; first 0-2 hours, soup containing 1.2 mmoles",up to 163.9 μM
same,time of maximum plasma concentration after consumption of the soup,"[1]; healthy subjects n=10, 1.2 mmoles SMCSO",one
same,maximum SMCSO concentration in blood plasma,"[1]; healthy subjects n=10, single soup portion providing 1.2 mmoles SMCSO, oral",24 µM
same,total S-methylcysteine sulfoxide excreted in urine as share of that consumed,"[1]; ten patients, 1.2 mmoles, cumulative",23%
same,cellular uptake of SMCSO (speed),[2],"rapid, as early as 1 h"
same,intracellular SMCSO uptake as % of exposure,[2]; 72 h of exposure,approximately 30%
same,intracellular SMCSO level as % of the initial exposure levels,[2]; constant from 1 h for at least 24 h,10%
same,cellular concentration of ATP,[3],reduced
same,"SMCSO accumulation in prostate biopsy tissue, intervention vs non-intervention arm",prostate tissue,increased accumulation
same,SMCSO excreted un-metabolised within urine,[4],6-8%

# Source: patent publication US20190083437A1, “S- Methylcysteine Sulfoxide For Prostate Cancer Prevention And Treatment” (QUADRAM INSTITUTE BIOSCIENCE, priority 2016, published 2019)
